pIC50: −log10 of the molar value.
Experiments:
[1] = Activity of AknS in presence of AknT
DU-145 = assay: Cytotoxicity against human DU145 cells after 72 hrs by calcein AM assay; assay type: functional, cell-based; settings: DU-145, 72 h, pooled result: one value given for 9 cell lines, strains, targets or settings

| kcat [1] | Compound | pIC50 (DU-145) |
| --- | --- | --- |
| 0.00367 s⁻¹ | CC[C@@]1(O)C[C@H](O[C@H]2C[C@H](N(C)C)[C@H](O[C@H]3C[C@H](O)[C@H](O[C@H]4CCC(=O)[C@H](C)O4)[C@H](C)O3)[C@H](C)O2)c2c(cc3c(c2O)C(=O)c2c(O)cccc2C3=O)[C@H]1C(=O)OC |  |
|  | C[C@H]1O[C@@H](O[C@H]2[C@@H](O)C[C@H](O[C@H]3[C@@H](O)C[C@H](O[C@H]4CC[C@@]5(C)[C@H](CC[C@@H]6[C@@H]5CC[C@]5(C)[C@@H](C7=CC(=O)OC7)CC[C@]65O)C4)O[C@@H]3C)O[C@@H]2C)C[C@H](O)[C@@H]1O [DIGITOXIN] | 6.36 |
